Data reported in article PMC6155691, “Synthesis and Biological Evaluation of Novel 8-Morpholinoimidazo[1,2-a]pyrazine Derivatives Bearing Phenylpyridine/Phenylpyrimidine-Carboxamides” (Molecules : A Journal of Synthetic Chemistry and Natural …, 2017).
Read-outs that look alike come from different tables or passages of the source.

Legend:
[1] = test system: A549 cell line (lung cancer); assay: MTT cytotoxicity assay, A549; assay type: cell-based; settings: Homo sapiens, 72 h, average of two separate determinations, NA: No Activity
Experimental: (§1) The target compounds 12a–g, 13a–g and 14a–g were evaluated for their in vitro cytotoxicity against three cancer cell lines (A549, PC-3 and MCF-7) by the standard MTT assay, with compound II and GDC-0941 as positive controls. […] The results expressed as inhibition rates or IC50 values are summarized in Table 1 and Table 2, where the values are the average of at least two independent experiments.
(§2) The in vitro cytotoxic activity of all the compounds 12a–g, 13a–g and 14a–g was evaluated with the A549, PC-3 and MCF-7 cell lines by the standard MTT assay, with compounds II and GDC-0941 as positive controls. The cancer cell lines were cultured in minimum essential medium (MEM) supplement with 10% fetal bovine serum (FBS). Approximately 4 × 10^3 cells, suspended in MEM medium, were plated onto each well of a 96-well plate and incubated in 5% CO2 at 37 °C for 24 h. The test compounds at indicated final concentrations were added to the culture medium and the cell cultures were continued for 72 h. Fresh MTT was added to each well at a terminal concentration of 5 μg/mL and incubated with cells at 37 °C for 4 h. The formazan crystals were dissolved in 100 μL of DMSO in each well, and the absorbance at 492 nm (for the MTT formazan) and 630 nm (for the reference wavelength) was measured with an ELISA reader. All of the compounds were tested three times in each of the cell lines. The results expressed as inhibition rates or IC50 (half-maximal inhibitory concentration) were the averages of two determinations and calculated by using the Bacus Laboratories Incorporated Slide Scanner (Bliss) software (the Bacus Laboratories Inc. Slide Scanner (BLISS) system, Lombard, IL, USA).

[2] = test system: PC-3 cell line (prostate cancer); assay: MTT cytotoxicity assay, PC-3; assay type: cell-based; settings: Homo sapiens, 72 h, average of two separate determinations, NA: No Activity
Experimental: as §1, §2

[3] = test system: MCF-7 cell line (breast cancer); assay: MTT cytotoxicity assay, MCF-7; assay type: cell-based; settings: Homo sapiens, MCF7, 72 h, average of two separate determinations, NA: No Activity
Experimental: as §1, §2

PI3Kα = settings: cited from earlier work
mTOR = test system: mTOR; parameters: method as in PMID 17339109; settings: read-out: IC50 against mTOR; cited from earlier work
PI3Kα kinase = PI3Kα kinase (Homo sapiens, UniProt P42336); assay: Kinase-Glo Luminescent Kinase Assay, PI3Kα; assay type: biochemical
Sequence of PI3Kα kinase (P42336 whole entry): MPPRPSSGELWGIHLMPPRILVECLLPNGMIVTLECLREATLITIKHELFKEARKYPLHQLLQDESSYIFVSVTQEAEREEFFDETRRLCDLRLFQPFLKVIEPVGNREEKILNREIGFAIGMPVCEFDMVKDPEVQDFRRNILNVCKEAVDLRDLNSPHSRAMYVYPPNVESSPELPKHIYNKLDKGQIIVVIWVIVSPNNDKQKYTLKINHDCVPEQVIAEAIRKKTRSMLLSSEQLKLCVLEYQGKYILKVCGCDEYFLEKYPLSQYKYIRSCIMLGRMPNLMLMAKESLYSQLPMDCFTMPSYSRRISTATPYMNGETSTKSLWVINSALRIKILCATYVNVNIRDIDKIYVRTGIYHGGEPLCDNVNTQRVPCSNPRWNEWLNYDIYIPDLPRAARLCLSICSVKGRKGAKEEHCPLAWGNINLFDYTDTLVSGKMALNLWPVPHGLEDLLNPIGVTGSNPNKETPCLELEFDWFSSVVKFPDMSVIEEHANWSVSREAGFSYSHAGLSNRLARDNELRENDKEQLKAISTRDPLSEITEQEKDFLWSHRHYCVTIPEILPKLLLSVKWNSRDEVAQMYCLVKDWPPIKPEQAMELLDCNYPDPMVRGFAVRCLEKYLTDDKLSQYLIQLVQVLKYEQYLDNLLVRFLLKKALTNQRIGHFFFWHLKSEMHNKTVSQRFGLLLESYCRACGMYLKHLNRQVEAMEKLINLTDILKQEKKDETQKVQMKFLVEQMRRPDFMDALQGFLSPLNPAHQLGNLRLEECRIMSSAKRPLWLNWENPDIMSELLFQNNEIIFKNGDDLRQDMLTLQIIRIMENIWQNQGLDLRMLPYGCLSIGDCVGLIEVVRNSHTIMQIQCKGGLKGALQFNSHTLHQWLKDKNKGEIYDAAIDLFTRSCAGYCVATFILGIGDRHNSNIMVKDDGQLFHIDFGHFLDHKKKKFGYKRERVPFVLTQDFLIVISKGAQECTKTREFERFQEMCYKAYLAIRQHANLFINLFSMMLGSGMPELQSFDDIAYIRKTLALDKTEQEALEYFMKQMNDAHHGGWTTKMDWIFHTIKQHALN
Sequence of PI3Kα kinase (P27986 whole entry partner): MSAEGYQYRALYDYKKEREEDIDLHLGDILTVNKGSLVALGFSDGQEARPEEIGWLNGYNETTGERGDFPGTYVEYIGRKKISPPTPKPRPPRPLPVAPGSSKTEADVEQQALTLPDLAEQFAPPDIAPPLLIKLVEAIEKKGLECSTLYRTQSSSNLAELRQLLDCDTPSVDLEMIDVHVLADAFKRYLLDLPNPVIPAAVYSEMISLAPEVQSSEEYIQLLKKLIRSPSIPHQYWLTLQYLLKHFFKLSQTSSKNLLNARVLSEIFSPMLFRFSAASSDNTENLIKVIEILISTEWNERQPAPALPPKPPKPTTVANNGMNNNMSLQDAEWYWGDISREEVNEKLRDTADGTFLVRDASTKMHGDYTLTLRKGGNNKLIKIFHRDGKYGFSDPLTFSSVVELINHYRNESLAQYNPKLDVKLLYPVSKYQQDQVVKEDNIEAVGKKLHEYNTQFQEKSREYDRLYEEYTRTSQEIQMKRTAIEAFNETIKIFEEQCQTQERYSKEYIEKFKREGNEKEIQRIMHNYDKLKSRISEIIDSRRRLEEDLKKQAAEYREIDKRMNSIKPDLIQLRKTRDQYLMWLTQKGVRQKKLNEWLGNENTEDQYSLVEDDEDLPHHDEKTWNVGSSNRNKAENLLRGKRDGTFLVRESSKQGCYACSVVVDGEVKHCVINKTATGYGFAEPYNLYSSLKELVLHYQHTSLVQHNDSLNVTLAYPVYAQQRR

Row | SMILES | melting point [°C] | IC50 [1] [µM] | IC50 [2] [µM] | IC50 [3] [µM] | also measured
1 | COc1ccc(-c2ccnc(C(=O)Nc3ccc(-c4cn5ccnc5c(N5CCOCC5)n4)cc3)c2)cc1 [13e, 4-(4-Methoxyphenyl)-N-(4-(8-morpholinoimidazo[1,2-a]pyrazin-6-yl)phenyl)picolinamide] | 257 to 260 | 23.9 ± 0.81 | 59.7 ± 2.22 | 74.9 ± 1.14 | –
2 | O=C(Nc1ccc(-c2cn3ccnc3c(N3CCOCC3)n2)cc1)c1cc(-c2cccc(F)c2)ccn1 [13b, 4-(3-Fluorophenyl)-N-(4-(8-morpholinoimidazo[1,2-a]pyrazin-6-yl)phenyl)picolinamide] | 237 to 239 | – | – | – | –
4 | CS(=O)(=O)N1CCN(Cc2cc3nc(-c4cccc5[nH]ncc45)nc(N4CCOCC4)c3s2)CC1 [GDC-0941, 2-(1H-Indazol-4-yl)-6-(4-methanesulfonyl-piperazin-1-ylmethyl)-4-morpholin-4-yl-thieno[3,2-d]pyrimidine, reference compound] | – | 6.99 ± 0.21 | 0.2 ± 0.08 | 0.07 ± 0.03 | –
6 | O=C(Nc1ccc(-c2cn3ccnc3c(N3CCOCC3)n2)cc1)c1ccc(-c2ccc(C(F)(F)F)cc2)cn1 [12d, N-(4-(8-Morpholinoimidazo[1,2-a]pyrazin-6-yl)phenyl)-5-(4-(trifluoromethyl)phenyl)picolinamide] | 233 to 235 | 15.3 ± 0.88 | 69.7 ± 1.13 | – | –
7 | COc1ccc(-c2ccc(C(=O)Nc3ccc(-c4cn5ccnc5c(N5CCOCC5)n4)cc3)nc2)cc1 [12e, 5-(4-Methoxyphenyl)-N-(4-(8-morpholinoimidazo[1,2-a]pyrazin-6-yl)phenyl)picolinamide] | 255 to 257 | – | – | – | –
8 | O=C(Nc1ccc(-c2cn3ccnc3c(N3CCOCC3)n2)cc1)c1cc(-c2ccc(F)cc2F)ccn1 [13c, 4-(2,4-Difluorophenyl)-N-(4-(8-morpholinoimidazo[1,2-a]pyrazin-6-yl)phenyl)picolinamide] | 266 to 267 | – | – | – | –
9 | O=C(Nc1ccc(-c2cn3ccnc3c(N3CCOCC3)n2)cc1)c1cc(-c2ccccc2)ccn1 [13a, N-(4-(8-Morpholinoimidazo[1,2-a]pyrazin-6-yl)phenyl)-4-phenylpicolinamide] | 261 to 262 | – | – | – | –
10 | O=C(Nc1ccc(-c2cn3ccnc3c(N3CCOCC3)n2)cc1)c1ccc(-c2ccccc2)cn1 [12a] | 268 to 270 | 58.7 ± 1.99 | 50.3 ± 2.04 | – | –
11 | O=C(Nc1ccc(-c2cn3ccnc3c(N3CCOCC3)n2)cc1)c1ccc(-c2cccc(F)c2)cn1 [12b, 5-(3-Fluorophenyl)-N-(4-(8-morpholinoimidazo[1,2-a]pyrazin-6-yl)phenyl)picolinamide] | 261 to 264 | – | – | – | –
12 | O=C(Nc1ccc(-c2cn3ccnc3c(N3CCOCC3)n2)cc1)c1ccc(-c2ccc(F)cc2F)cn1 [12c, 5-(2,4-Difluorophenyl)-N-(4-(8-morpholinoimidazo[1,2-a]pyrazin-6-yl)phenyl)picolinamide] | 255 to 257 | – | – | – | –
13 | Cc1cccc(-c2ccnc(C(=O)Nc3ccc(-c4cn5ccnc5c(N5CCOCC5)n4)cc3)c2)c1 [13f, N-(4-(8-Morpholinoimidazo[1,2-a]pyrazin-6-yl)phenyl)-4-(m-tolyl)picolinamide] | 233 to 234 | 10.5 ± 0.82 | 65.61 ± 0.52 | 74.2 ± 1.86 | –
14 | Cc1cccc(-c2ccc(C(=O)Nc3ccc(-c4cn5ccnc5c(N5CCOCC5)n4)cc3)nc2)c1 [12f, N-(4-(8-Morpholinoimidazo[1,2-a]pyrazin-6-yl)phenyl)-5-(m-tolyl)picolinamide] | 241 to 243 | 19.1 ± 1.1 | 26.8 ± 1.47 | – | –
15 | O=C(Nc1ccc(-c2cn3ccnc3c(N3CCOCC3)n2)cc1)c1cc(-c2ccc(C(F)(F)F)cc2)ccn1 [13d, N-(4-(8-Morpholinoimidazo[1,2-a]pyrazin-6-yl)phenyl)-4-(4-(trifluoromethyl)phenyl)picolinamide] | 269 to 272 | 42 ± 1.49 | 55.6 ± 1.32 | 62.5 ± 1.99 | –
16 | Cc1ccc(-c2ccc(C(=O)Nc3ccc(-c4cn5ccnc5c(N5CCOCC5)n4)cc3)nc2)cc1 [12g, N-(4-(8-Morpholinoimidazo[1,2-a]pyrazin-6-yl)phenyl)-5-(p-tolyl)picolinamide] | 258 to 260 | 68.1 ± 0.89 | 42.3 ± 0.86 | – | –
17 | Cc1ccc(-c2ccnc(C(=O)Nc3ccc(-c4cn5ccnc5c(N5CCOCC5)n4)cc3)c2)cc1 [13g, N-(4-(8-Morpholinoimidazo[1,2-a]pyrazin-6-yl)phenyl)-4-(p-tolyl)picolinamide] | 271 to 273 | 11.2 ± 1.08 | – | 7.89 ± 0.81 | –

Second part, led by results:

Row | melting point [°C] | SMILES | IC50 [1] [µM] | IC50 [2] [µM] | IC50 [3] [µM] | also measured
18 | 221 to 223 | O=C(Nc1ccc(-c2cn3ccnc3c(N3CCOCC3)n2)cc1)c1cc(-c2ccc(Br)cc2)ncn1 [14d, 6-(4-Bromophenyl)-N-(4-(8-morpholinoimidazo[1,2-a]pyrazin-6-yl)phenyl)pyrimidine-4-carboxamide] | 14.4 ± 1.01 | 37.1 ± 0.97 | – | –
19 | 269 to 271 | COc1ccc(-c2cc(C(=O)Nc3ccc(-c4cn5ccnc5c(N5CCOCC5)n4)cc3)ncn2)cc1 [14c, 6-(4-Methoxyphenyl)-N-(4-(8-morpholinoimidazo[1,2-a]pyrazin-6-yl)phenyl)pyrimidine-4-carboxamide] | 6.39 ± 1.04 | 12.7 ± 0.95 | 10.2 ± 1.62 | IC50 (PI3Kα kinase; Kinase-Glo, average of two separate determinations): 1.25 ± 0.13 µM; fold more active than lead compound II against PI3Kα kinase (PI3Kα kinase; ratio of IC50 values, 7.39 μM vs 1.25 μM): 6 fold
20 | 272 to 275 | O=C(Nc1ccc(-c2cn3ccnc3c(N3CCOCC3)n2)cc1)c1cc(-c2ccccc2)ncn1 [14a, N-(4-(8-Morpholinoimidazo[1,2-a]pyrazin-6-yl)phenyl)-6-phenylpyrimidine-4-carboxamide] | 10.8 ± 1.62 | – | – | –
21 | 235 to 237 | O=C(Nc1ccc(-c2cn3ccnc3c(N3CCOCC3)n2)cc1)c1cc(-c2ccc(Cl)cc2)ncn1 [14e, 6-(4-Chlorophenyl)-N-(4-(8-morpholinoimidazo[1,2-a]pyrazin-6-yl)phenyl)pyrimidine-4-carboxamide] | 17.4 ± 1.01 | – | – | –
22 | 278 to 281 | O=C(Nc1ccc(-c2cn3ccnc3c(N3CCOCC3)n2)cc1)c1cc(-c2ccc(C(F)(F)F)cc2)ncn1 [14g, N-(4-(8-Morpholinoimidazo[1,2-a]pyrazin-6-yl)phenyl)-6-(4-(trifluoromethyl)phenyl)pyrimidine-4-carboxamide] | – | 96.6 ± 2.58 | – | –
23 | 259 to 260 | O=C(Nc1ccc(-c2cn3ccnc3c(N3CCOCC3)n2)cc1)c1cc(-c2ccc(F)cc2)ncn1 [14f, 6-(4-Fluorophenyl)-N-(4-(8-morpholinoimidazo[1,2-a]pyrazin-6-yl)phenyl)pyrimidine-4-carboxamide] | 58.2 ± 4.67 | – | 47.1 | –
24 | 222 to 225 | Cc1ccc(-c2cc(C(=O)Nc3ccc(-c4cn5ccnc5c(N5CCOCC5)n4)cc3)ncn2)cc1 [14b, N-(4-(8-Morpholinoimidazo[1,2-a]pyrazin-6-yl)phenyl)-6-(p-tolyl)pyrimidine-4-carboxamide] | 8.88 ± 0.97 | 25 ± 1.19 | 6.69 ± 2.04 | inhibition at 10 µM (PI3Kα kinase; at 10 μM, Kinase-Glo, average of two separate determinations, read-out: PI3Kα 10 μM Inhibitory %): 58 ± 4.4%
